Where two headings read alike, the source gives them in different places.
Columns and labels:
[1] = Monkey cassette dosing pharmacokinetics; format: in vivo; conditions: IV; for clearance / Vd: male, plasma; for Vd: read-out: Vss
CYP2B6 = biological target: T1, CYP2B6 (Homo sapiens, UniProt P20813); experiment: Time-dependent inhibition of CYP2B6 in human liver microsomes; format: in vitro ADME; conditions: for (% Activity NADPH T0)/(% Activity NADPH T30): fold change; for activity at 30 min, 25 µM / activity at 0 min, 25 µM / activity at 30 min, 50 µM / activity at 0 min, 50 µM: pooled human liver microsomes, human liver microsomes; for activity at 30 min, 25 µM / activity at 30 min, 50 µM: after 30 minutes incubation, read-out: % Activity NADPH T30; for activity at 0 min, 25 µM / activity at 0 min, 50 µM: time zero, read-out: % Activity NADPH T0
T1 construct: Pooled human microsomes and selective CYP probe substrates were used; from tissue; host or cells: pooled human liver microsomes
T1 sequence (P20813 1-491): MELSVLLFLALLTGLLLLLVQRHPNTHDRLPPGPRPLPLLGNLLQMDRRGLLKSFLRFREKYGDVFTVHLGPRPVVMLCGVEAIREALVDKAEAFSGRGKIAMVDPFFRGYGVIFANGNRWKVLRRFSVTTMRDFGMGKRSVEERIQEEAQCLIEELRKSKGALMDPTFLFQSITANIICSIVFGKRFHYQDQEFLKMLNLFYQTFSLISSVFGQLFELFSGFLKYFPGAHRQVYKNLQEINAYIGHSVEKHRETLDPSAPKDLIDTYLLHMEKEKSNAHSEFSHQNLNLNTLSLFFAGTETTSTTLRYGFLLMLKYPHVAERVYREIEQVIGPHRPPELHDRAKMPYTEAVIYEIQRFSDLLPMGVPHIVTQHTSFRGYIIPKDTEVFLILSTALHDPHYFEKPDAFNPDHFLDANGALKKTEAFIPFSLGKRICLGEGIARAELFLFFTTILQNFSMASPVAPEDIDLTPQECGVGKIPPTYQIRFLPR
Description: (§1) An assessment of the time-dependent Inhibitory Potential of the test compounds against Principal Human Cytochrome P450 Isozymes using Human Liver Microsomes was also carried out using standard methods (Grimm et al, Drug Metab. Dispos., July; 37(7):1355-70. doi: 10.1124/dmd.109.026716, 2009). Pooled human microsomes and selective CYP probe substrates were used for in vitro assessment of test compounds at 25 and 50 μM as time-dependent inhibitors of […] human hepatic cytochrome P450 isozymes (CYP1A2, 2B6, 2C9, 2C19, 2D6, and 3A4). LC-MS/MS was used to quantify metabolite formation. The inhibition of each P450 enzyme in human liver microsomes was measured as the percentage decrease in the activity of marker metabolite formation as measured by LC-MS/MS compared to non-inhibited controls (=100% activity) at time zero and after 30 minutes incubation. The occurrence of any time dependent inhibition was then expressed as the fold change in enzyme activity at time zero relative to the activity after 30 minutes incubation.

[2] = system: bovine cardiac myofibrils; experiment: Myofibril assay (ATPase activity of skinned bovine cardiac myofibrils, PK/LDH-coupled); format: biochemical; conditions: inhibition of steady-state ATPase of bovine cardiac myofibrils; CaCl2 for 50% or 75% activation
How it was run: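 Steady-state ATPase of detergent-skinned bovine left-ventricular myofibrils (1 mg/mL), PK/LDH-coupled NADH read at 340 nm, in PIPES/MgCl2 buffer pH 6.8 with 50 μM ATP, 0.6 mM EGTA and CaCl2 set for 50% or 75% activation. Inhibition of activity measured.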

CYP1A2 = biological target: T2, CYP1A2 (Homo sapiens, UniProt P05177); experiment: Time-dependent inhibition of CYP1A2 in human liver microsomes; format: in vitro ADME; conditions: for (% Activity NADPH T0)/(% Activity NADPH T30): fold change; for activity at 30 min, 25 µM / activity at 0 min, 25 µM / activity at 30 min, 50 µM / activity at 0 min, 50 µM: pooled human liver microsomes, human liver microsomes; for activity at 30 min, 25 µM / activity at 30 min, 50 µM: after 30 minutes incubation, read-out: % Activity NADPH T30; for activity at 0 min, 25 µM / activity at 0 min, 50 µM: time zero, read-out: % Activity NADPH T0
T2 construct: Pooled human microsomes and selective CYP probe substrates were used; from tissue; host or cells: pooled human liver microsomes
T2 sequence (P05177 1-516): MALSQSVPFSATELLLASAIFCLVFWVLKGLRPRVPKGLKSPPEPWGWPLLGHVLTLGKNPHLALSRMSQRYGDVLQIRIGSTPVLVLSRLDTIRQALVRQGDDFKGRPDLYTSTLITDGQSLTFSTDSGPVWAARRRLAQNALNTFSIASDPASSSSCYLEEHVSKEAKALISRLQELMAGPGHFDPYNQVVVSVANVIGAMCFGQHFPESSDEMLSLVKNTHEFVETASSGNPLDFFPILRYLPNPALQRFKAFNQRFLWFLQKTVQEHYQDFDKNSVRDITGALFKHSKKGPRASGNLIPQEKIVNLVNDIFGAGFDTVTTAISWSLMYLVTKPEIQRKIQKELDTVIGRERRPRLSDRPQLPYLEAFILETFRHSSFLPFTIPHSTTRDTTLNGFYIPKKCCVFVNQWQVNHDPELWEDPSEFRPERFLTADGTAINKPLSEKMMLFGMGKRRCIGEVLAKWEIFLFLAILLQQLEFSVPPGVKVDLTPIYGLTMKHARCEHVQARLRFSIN
Description: as §1

CYP3A4 = biological target: T3, CYP3A4 (Homo sapiens, UniProt P08684); experiment: Time-dependent inhibition of CYP3A4 in human liver microsomes (testosterone and midazolam probes); format: in vitro ADME; conditions: for (% Activity NADPH T0)/(% Activity NADPH T30): fold change; for activity at 30 min, 25 µM / activity at 30 min, 50 µM: human, after 30 minutes incubation, read-out: % Activity NADPH T30; for activity at 30 min, 25 µM / activity at 30 min, 50 µM / activity at 0 min, 25 µM / activity at 0 min, 50 µM: pooled human liver microsomes; for activity at 0 min, 25 µM / activity at 0 min, 50 µM: human liver microsomes, time zero, read-out: % Activity NADPH T0
T3 construct: Pooled human microsomes and selective CYP probe substrates were used; from tissue; host or cells: pooled human liver microsomes
How it was run: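 Pooled human liver microsomes with selective CYP probe substrates were exposed to compounds at 25 and 50 μM. Marker metabolite formation was quantified by LC-MS/MS as % of uninhibited control at time zero and after 30 min incubation. Time-dependent inhibition is expressed as the fold change in activity between time zero and 30 min.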

CYP2D6 = biological target: T4, CYP2D6 (Homo sapiens, UniProt P10635); experiment: Time-dependent inhibition of CYP2D6 in human liver microsomes; format: in vitro ADME; conditions: for (% Activity NADPH T0)/(% Activity NADPH T30): fold change; for activity at 30 min, 25 µM / activity at 0 min, 25 µM / activity at 30 min, 50 µM / activity at 0 min, 50 µM: pooled human liver microsomes, human liver microsomes; for activity at 30 min, 25 µM / activity at 30 min, 50 µM: after 30 minutes incubation, read-out: % Activity NADPH T30; for activity at 0 min, 25 µM / activity at 0 min, 50 µM: time zero, read-out: % Activity NADPH T0
T4 construct: Pooled human microsomes and selective CYP probe substrates were used; from tissue; host or cells: pooled human liver microsomes
Description: as §1

[3] = CYP3A4-M (midazolam probe substrate), 25 μM
[4] = CYP3A4-M (midazolam probe substrate), 50 μM
[5] = CYP3A4-T (testosterone probe substrate), 25 μM
[6] = CYP3A4-T (testosterone probe substrate), 50 μM

T4 sequence (P10635 whole entry): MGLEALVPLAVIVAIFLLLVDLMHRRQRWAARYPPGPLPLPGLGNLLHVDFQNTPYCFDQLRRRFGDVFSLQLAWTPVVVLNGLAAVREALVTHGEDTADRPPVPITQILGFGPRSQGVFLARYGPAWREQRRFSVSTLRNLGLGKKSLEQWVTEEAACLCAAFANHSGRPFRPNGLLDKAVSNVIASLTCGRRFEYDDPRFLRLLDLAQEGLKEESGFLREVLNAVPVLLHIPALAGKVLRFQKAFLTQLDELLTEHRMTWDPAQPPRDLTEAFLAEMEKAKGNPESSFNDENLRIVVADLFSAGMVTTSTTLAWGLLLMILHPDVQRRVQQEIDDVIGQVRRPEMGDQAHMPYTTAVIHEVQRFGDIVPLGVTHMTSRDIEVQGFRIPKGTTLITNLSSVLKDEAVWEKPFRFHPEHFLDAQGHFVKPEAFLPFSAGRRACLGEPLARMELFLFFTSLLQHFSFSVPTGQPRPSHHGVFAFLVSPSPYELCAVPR
T3 sequence (P08684 whole entry): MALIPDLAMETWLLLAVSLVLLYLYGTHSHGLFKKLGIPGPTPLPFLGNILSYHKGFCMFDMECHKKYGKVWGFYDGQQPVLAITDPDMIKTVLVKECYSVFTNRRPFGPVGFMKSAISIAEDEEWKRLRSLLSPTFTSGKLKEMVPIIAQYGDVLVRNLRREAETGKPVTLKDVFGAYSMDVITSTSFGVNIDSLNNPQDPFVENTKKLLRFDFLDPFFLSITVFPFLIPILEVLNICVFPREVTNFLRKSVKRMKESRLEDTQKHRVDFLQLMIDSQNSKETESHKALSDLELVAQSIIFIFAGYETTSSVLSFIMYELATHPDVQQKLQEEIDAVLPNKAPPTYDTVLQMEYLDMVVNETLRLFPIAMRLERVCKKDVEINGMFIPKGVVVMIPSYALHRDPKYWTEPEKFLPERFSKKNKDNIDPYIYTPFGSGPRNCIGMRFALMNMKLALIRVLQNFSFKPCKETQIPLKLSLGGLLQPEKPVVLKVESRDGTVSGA

| Structure (SMILES) | t l/2 [1] [h] | clearance [1] [L/h/kg] | Vd [1] [L/kg] | (% Activity NADPH T0)/(% Activity NADPH T30) (CYP2B6; CYP2B6, 25 μM) | (% Activity NADPH T0)/(% Activity NADPH T30) (CYP2B6; CYP2B6, 50 μM) | activity at 30 min, 25 µM (CYP2B6; CYP2B6, 25 μM) [%] | activity at 0 min, 25 µM (CYP2B6; CYP2B6, 25 μM) [%] | activity at 30 min, 50 µM (CYP2B6; CYP2B6, 50 μM) [%] | activity at 0 min, 50 µM (CYP2B6; CYP2B6, 50 μM) [%] | CDMF IC15 [2] [µM] | (% Activity NADPH T0)/(% Activity NADPH T30) (CYP1A2; CYP1A2, 25 μM) | (% Activity NADPH T0)/(% Activity NADPH T30) (CYP1A2; CYP1A2, 50 μM) | activity at 30 min, 25 µM (CYP1A2; CYP1A2, 25 μM) [%] | activity at 0 min, 25 µM (CYP1A2; CYP1A2, 25 μM) [%] | activity at 30 min, 50 µM (CYP1A2; CYP1A2, 50 μM) [%] | activity at 0 min, 50 µM (CYP1A2; CYP1A2, 50 μM) [%] | (% Activity NADPH T0)/(% Activity NADPH T30) (CYP3A4; [3]) | (% Activity NADPH T0)/(% Activity NADPH T30) (CYP3A4; [4]) | (% Activity NADPH T0)/(% Activity NADPH T30) (CYP3A4; [5]) | (% Activity NADPH T0)/(% Activity NADPH T30) (CYP3A4; [6]) | further results |
| --- | --- | --- | --- | --- | --- | --- | --- | --- | --- | --- | --- | --- | --- | --- | --- | --- | --- | --- | --- | --- | --- |
| C[C@H]1CC[C@H](N2CC(=O)N(Cc3ccc(F)c(Cl)c3)C3(CN(C(N)=O)C3)C2=O)CC1 [Compound 7, 5-(3-chloro-4-fluorobenzyl)-8-((1r,4r)-4-methylcyclohexyl)-6,9-dioxo-2,5,8-triazaspiro[3.5]nonane-2-carboxamide] | 12.5 | 0.612 | 9.12 | 0.9 | 1.1 | 74 | 70 | 70 | 78 | 0.8 | 0.9 | 0.8 | 95 | 81 | 100 | 79 | 1.0 | 1.0 | 1.0 | 1.0 | activity at 30 min, 25 µM (CYP3A4; [3]): 100%; activity at 30 min, 50 µM (CYP3A4; [4]): 100%; activity at 30 min, 25 µM (CYP3A4; [5]): 100%; activity at 30 min, 50 µM (CYP3A4; [6]): 100%; activity at 0 min, 25 µM (CYP3A4; [3]): 100%; activity at 0 min, 50 µM (CYP3A4; [4]): 100%; activity at 0 min, 25 µM (CYP3A4; [5]): 100%; activity at 0 min, 50 µM (CYP3A4; [6]): 100%; (% Activity NADPH T0)/(% Activity NADPH T30) (CYP2D6; CYP2D6, 25 μM): 0.9; (% Activity NADPH T0)/(% Activity NADPH T30) (CYP2D6; CYP2D6, 50 μM): 0.9; activity at 30 min, 25 µM (CYP2D6; CYP2D6, 25 μM): 88%; activity at 0 min, 25 µM (CYP2D6; CYP2D6, 25 μM): 80%; activity at 30 min, 50 µM (CYP2D6; CYP2D6, 50 μM): 95%; activity at 0 min, 50 µM (CYP2D6; CYP2D6, 50 μM): 87% |
| CC(C)N1CC(=O)N(Cc2ccc(Cl)c(F)c2)C2(CN(c3cccnn3)C2)C1=O [Compound 8, 5-(4-chloro-3-fluorobenzyl)-8-isopropyl-2-(pyridazin-3-yl)-2,5,8-triazaspiro[3.5]nonane-6,9-dione] | 3.72 | 1.21 | 4.76 | 0.9 | 0.9 | 97 | 83 | 100 | 88 | 1.3 | 0.9 | 0.9 | 96 | 82 | 101 | 86 | 1.0 | 1.0 | 1.0 | 1.0 | activity at 30 min, 25 µM (CYP3A4; [3]): 100%; activity at 30 min, 50 µM (CYP3A4; [4]): 100%; activity at 30 min, 25 µM (CYP3A4; [5]): 100%; activity at 30 min, 50 µM (CYP3A4; [6]): 100%; activity at 0 min, 25 µM (CYP3A4; [3]): 100%; activity at 0 min, 50 µM (CYP3A4; [4]): 100%; activity at 0 min, 25 µM (CYP3A4; [5]): 100%; activity at 0 min, 50 µM (CYP3A4; [6]): 100%; (% Activity NADPH T0)/(% Activity NADPH T30) (CYP2D6; CYP2D6, 25 μM): 0.9; (% Activity NADPH T0)/(% Activity NADPH T30) (CYP2D6; CYP2D6, 50 μM): 1.0; activity at 30 min, 25 µM (CYP2D6; CYP2D6, 25 μM): 98%; activity at 0 min, 25 µM (CYP2D6; CYP2D6, 25 μM): 92%; activity at 30 min, 50 µM (CYP2D6; CYP2D6, 50 μM): 91%; activity at 0 min, 50 µM (CYP2D6; CYP2D6, 50 μM): 87% |

— US12286437B2, “Cardiac sarcomere inhibitors” (Cytokinetics, Inc., priority 2021, dated 2025)
